Measurements from US20100120679A1, “Targeting NBS1-ATM Interaction To Sensitize Cancer Cells To Radiotherapy And Chemotherapy” (SOUTHERN RESEARCH INSTITUTE, priority 2006, published 2010).
Ends that are not written are not given here. Peptide text beside a SMILES is read from it. * marks the point of attachment. Biotin = O=C1N[C@H]2[C@H](CS[C@H]2CCCCC(=O)*)N1

Key:
Hela cells [1] = settings: cited from earlier work
NBS1-ATM interaction = biological target: T1, NBS1-ATM interaction (Homo sapiens, UniProt Q13315); test: Co-immunoprecipitation of ATM with NBS1 in peptide-treated cells; type: cell-based; settings: HeLa cells, four hours after peptide treatment, unirradiated
T1 construct: endogenous in cells; host or cells: HeLa
Protocol: HeLa cells treated with the NIP peptides were irradiated (0 or 6Gy). Immunoprecipitation was performed with a rabbit NBS1 antibody, and Western blotting was performed with monoclonal antibodies against ATM, NBS1 or MRE11.
Immunoprecipitation and Western blotting: For co-immunoprecipitation of ATM, NBS1 and MRE11, cells were lysed 1 hour in ice-cold lysis buffer, which consisted of 10 mM Tris-HCl (pH 7.5), 100 mM NaCl, 5 mM EDTA, 0.5% NP-40, 5 mM Na3VO4, 1 mM NaF, and 1 mM PMSF. After centrifugation, supernatants were incubated with indicated antibodies. After extensive washing with the lysis buffer, immunoprecipitates were analyzed by immunoblot using specific antibodies. For western blotting analysis, samples (cell lysates or immunoprecipitates) were separated on 4-12% SDS-poly-acrylamide gels, transferred to nitrocellulose membranes, and probed with various antibodies.
wtNIP Abrogated the NBS1-ATM Interaction: To investigate whether R9-conjugated NIP peptides could inhibit NBS1-ATM interactions, coimmunoprecipitation experiments were performed in cells treated with the NIP peptides. Four hours after peptide treatment, HeLa cells were harvested and subjected to immunoprecipitation using an anti-NBS1 antibody. The immunoprecipitates were then blotted with anti-ATM, NBS1, and MRE11 antibodies.

HeLa cells [2] = test: Length of time the peptides remain in cells (degradation, immunofluorescence)
Protocol: HeLa cells were treated with 10 μM R9, wtNIP, or scNIP for one hour and harvested at indicated time points before they were analyzed by immunofluorescence microscopy staining with an […].
Immunofluorescence microscopy: Exponentially growing cultures of cells were plated on sterile, […] coverslips, and incubated for 24 hours at 37° C. in 5% CO2 humidified air before they are treated with the NIP peptides at room temperature. Coverslips were washed with PBS and fixed with 4% paraformaldehyde-0.25% Triton X-100 for 15 minutes at room temperature, blocked for 30 minutes at room temperature, and incubated with FITC-conjugated streptavidin or anti-γH2AX and phospho-NBS1 antibodies (Rockland Immunochemicals, Gilbertsville, Pa.) for 1 hour at room temperature. Coverslips were then mounted with Vectashield Elite (Vector Labs, Burlingame, Calif.) and observed with a Leica fluorescence microscope. Images were captured at 40× magnification using a Q Imaging Retiga Exi digital camera and analyzed with Image Pro-Plus 5.1 software.
Because the peptides would be used in radiation studies, the length of time the peptides remain in cells was determined to ensure that the peptides would be present throughout the DNA repair process after IR.

[3] = test system: γ-H2AX foci in HeLa cells; test: IR-induced γ-H2AX focus formation, HeLa; type: cell-based, human; settings: 10 μM peptide, 30 minutes after 6Gy IR
Description: (§1) Error bars represent +/−1 SD, graphed are the mean of three independent experiments.
(§2) wtNIP Inhibits IR-Induced γ-H2AX and NBS1 pSer343 Focus Formation: One of the earliest responses to IR-induced DNA damage is the formation of γ-H2AX foci, which requires functional ATM (Burma et al., 2001; Furuta et al., 2003). […] Immunofluorescence microscopy was used to detect the presence of γ-H2AX foci in mock-irradiated or irradiated cells in the presence of R9, wtNIP or scNIP. […] Therefore, IR-induced γ-H2AX focus formation can be inhibited by wt-NIP.

[4] = test system: γ-H2AX foci in DU-145 cells; test: IR-induced γ-H2AX focus formation, DU-145; type: cell-based, human; settings: 10 μM peptide, 6Gy
Description: as §1, §2

HeLa cells [5] = test: Colony formation assay (radiosensitivity), HeLa
Protocol: Shown in A (HeLa), C (MO59J) and D (GM9607) are the susvival curves after indicated doses of radiation. Error bars represent +/−1 SEM, graphed are the mean of three independent experiments.
Colony formation assays: To determine the radiosensitivity, the colony forming assay was incorporated. Cells were harvested with 0.125% trypsin-0.05% EDTA, pelleted and re-suspended in 1 ml fresh media with a 22 g needle to disperse clumps prior to hemocytometer counting in trypan blue. Cells were then plated at limiting dilutions in […] and allowed to adhere overnight. Cultures were treated with PBS, R9, wtNIP, or scNIP for 1 hour, and irradiated (0-6Gy). Fresh peptides were added every four hours until 24 hours after IR, when the medium was replaced with peptide-free medium. Cultures were incubated for 10-12 days, harvested and stained with 0.5% crystal violet in methanol. Colony number was determined with a dissecting microscope. A population of >50 cells was counted as one colony, and the number of colonies was expressed as a percentage of the value for untreated mock irradiated control cells. The surviving curves were plotted by linear regression analyses and the D0 value represents the radiation dose that leads to 37% of survival. To determine the radiosensitizing potential of the peptides in comparison to other small molecule inhibitors, the sensitizing enhancement ratio (SER) was calculated based on the dose of radiation required to reduce survival to 37% in the presence of scNIP or wtNIP. The following formula was used: […]
Statistics: To establish statistical significance, Student's t-test was incorporated. The data were first fit to each experimental group over a dose range of 0-6Gy. Significant differences were established at p<0.05.
FIG. 6A depicts the survival curves for HeLa cells treated with R9, wtNIP, or scNIP over a dose range of 0 to 6 Gy.

HeLa cells [6] = test: Peptide internalization by immunofluorescence microscopy (fluorescein-conjugated streptavidin); type: cell-based, human; settings: 10 μM for 1 h
Protocol: First, the internalization of the peptides was evaluated. Cells treated with the peptide were probed with a fluorescein-conjugated streptavidin antibody to determine the presence of the biotinylated peptides.

[7] = test system: NBS1 phosphorylation on serine 343 in HeLa cells; test: IR-induced NBS1 pSer343 focus formation, HeLa; type: cell-based, human
Description: as §1
To further support the idea that wtNIP can inhibit ATM-mediated DNA damage pathways, IR-induced NBS1 focus formation, an event considered to be an ATM-dependent process at the sites of DSBs (Lim et al., 2000) was investigated. NBS1 foci are a result of ATM-mediated NBS1 phosphorylation on serine 343. […] The average number of foci in mock-irradiated HeLa cells was 6, 8, and 6 for R9, wtNIP, and scNIP, respectively.

ATM = ATM (human, UniProt Q13315 2-3056); test: cell-based or functional assay
Chain of ATM (Q13315 other isoform, or with tags, fused parts or gaps limits assumed): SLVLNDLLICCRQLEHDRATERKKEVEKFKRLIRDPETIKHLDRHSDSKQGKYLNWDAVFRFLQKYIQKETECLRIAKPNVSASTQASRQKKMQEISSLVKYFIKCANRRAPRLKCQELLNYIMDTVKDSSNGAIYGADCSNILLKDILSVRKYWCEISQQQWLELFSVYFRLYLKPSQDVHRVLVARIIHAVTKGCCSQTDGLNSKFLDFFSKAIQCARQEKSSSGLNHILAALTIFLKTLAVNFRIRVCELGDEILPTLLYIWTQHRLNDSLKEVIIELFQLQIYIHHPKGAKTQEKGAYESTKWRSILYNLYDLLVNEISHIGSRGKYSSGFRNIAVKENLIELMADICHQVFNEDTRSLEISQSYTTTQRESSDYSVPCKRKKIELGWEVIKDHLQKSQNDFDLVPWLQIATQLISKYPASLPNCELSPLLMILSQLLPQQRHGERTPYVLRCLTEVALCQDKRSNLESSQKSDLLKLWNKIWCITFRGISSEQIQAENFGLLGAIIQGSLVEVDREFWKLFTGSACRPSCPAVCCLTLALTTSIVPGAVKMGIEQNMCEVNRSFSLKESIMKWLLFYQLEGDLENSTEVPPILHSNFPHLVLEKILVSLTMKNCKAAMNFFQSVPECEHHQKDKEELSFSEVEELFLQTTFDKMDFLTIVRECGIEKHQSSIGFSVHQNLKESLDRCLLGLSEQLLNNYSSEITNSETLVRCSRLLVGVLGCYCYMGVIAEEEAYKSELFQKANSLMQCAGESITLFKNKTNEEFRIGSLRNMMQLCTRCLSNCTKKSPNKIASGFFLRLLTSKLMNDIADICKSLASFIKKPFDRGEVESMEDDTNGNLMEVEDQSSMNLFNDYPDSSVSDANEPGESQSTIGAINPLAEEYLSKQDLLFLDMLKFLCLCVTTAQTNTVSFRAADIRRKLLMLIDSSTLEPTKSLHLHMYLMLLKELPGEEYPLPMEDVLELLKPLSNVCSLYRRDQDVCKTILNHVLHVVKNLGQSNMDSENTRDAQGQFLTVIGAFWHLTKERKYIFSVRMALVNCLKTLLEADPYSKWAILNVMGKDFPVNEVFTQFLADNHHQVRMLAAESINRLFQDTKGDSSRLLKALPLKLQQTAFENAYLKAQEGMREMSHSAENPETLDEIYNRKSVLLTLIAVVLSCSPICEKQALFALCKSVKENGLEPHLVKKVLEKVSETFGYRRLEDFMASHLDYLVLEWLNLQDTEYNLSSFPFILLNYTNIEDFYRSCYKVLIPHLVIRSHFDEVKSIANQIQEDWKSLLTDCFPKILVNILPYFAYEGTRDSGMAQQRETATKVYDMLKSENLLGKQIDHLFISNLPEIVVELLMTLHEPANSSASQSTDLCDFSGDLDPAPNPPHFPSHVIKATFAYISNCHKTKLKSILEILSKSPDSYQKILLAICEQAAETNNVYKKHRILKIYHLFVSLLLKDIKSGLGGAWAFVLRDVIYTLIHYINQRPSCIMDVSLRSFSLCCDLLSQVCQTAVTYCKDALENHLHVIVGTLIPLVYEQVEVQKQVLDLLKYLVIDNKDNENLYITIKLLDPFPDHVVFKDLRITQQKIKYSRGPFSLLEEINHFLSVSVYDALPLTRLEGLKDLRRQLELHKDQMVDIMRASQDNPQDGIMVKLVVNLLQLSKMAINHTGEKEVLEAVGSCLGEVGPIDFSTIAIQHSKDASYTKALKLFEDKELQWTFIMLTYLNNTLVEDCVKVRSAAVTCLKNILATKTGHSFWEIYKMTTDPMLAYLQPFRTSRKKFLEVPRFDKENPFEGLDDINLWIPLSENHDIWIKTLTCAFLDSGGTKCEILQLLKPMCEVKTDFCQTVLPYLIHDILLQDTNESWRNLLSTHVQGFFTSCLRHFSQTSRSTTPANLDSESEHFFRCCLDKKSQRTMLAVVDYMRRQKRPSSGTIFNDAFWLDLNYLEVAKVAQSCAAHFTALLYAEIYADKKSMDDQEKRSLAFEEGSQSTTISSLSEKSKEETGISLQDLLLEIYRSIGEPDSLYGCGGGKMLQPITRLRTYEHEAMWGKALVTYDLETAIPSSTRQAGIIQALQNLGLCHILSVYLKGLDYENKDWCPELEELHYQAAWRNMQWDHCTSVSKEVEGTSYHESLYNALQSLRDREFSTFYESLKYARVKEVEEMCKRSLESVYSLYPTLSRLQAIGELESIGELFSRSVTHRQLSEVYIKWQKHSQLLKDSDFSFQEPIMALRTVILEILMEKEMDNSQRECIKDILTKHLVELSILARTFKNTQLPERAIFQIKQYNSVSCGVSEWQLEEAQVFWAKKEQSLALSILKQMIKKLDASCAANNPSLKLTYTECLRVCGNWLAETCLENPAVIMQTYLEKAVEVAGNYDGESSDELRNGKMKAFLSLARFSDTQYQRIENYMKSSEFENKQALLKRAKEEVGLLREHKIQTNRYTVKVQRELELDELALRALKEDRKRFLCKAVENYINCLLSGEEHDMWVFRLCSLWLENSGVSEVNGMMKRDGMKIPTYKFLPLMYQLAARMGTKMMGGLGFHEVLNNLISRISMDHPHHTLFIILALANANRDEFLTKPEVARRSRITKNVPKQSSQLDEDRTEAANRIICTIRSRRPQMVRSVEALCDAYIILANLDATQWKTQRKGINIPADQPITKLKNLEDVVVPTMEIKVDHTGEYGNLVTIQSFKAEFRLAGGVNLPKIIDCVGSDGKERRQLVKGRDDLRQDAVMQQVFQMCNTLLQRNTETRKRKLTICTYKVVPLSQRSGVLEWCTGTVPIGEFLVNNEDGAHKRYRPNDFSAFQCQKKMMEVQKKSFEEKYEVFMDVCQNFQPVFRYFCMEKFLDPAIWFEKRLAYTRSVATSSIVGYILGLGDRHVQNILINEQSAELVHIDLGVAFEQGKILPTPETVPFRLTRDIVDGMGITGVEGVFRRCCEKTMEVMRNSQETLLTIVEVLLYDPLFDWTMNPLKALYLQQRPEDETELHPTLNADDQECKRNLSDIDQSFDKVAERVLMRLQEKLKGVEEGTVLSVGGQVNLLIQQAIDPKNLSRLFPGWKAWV

## O=c1cc(-c2cccc3c2Sc2ccccc2S3)oc(N2CCOCC2)c1 [KU55933]
Hela cells [1]; Hela cells
  radiosensitivity: significant increase in radiosensitivity
Hela cells [1]
  increase in sensitivity to etoposide: ≤ 35.5 fold

## CC(C)C[C@H](NC(=O)[C@H](CCC(=O)O)NC(=O)[C@H](CCC(=O)O)NC(=O)[C@H](CC(C)C)NC(=O)[C@H](CC(=O)O)NC(=O)[C@H](C)NC(=O)[C@H](CC(=O)O)NC(=O)[C@H](CO)NC(=O)[C@H](CCCNC(=N)N)NC(=O)[C@H](CCCNC(=N)N)NC(=O)[C@H](CCCNC(=N)N)NC(=O)[C@H](CCCNC(=N)N)NC(=O)[C@H](CCCNC(=N)N)NC(=O)[C@H](CCCNC(=N)N)NC(=O)[C@H](CCCNC(=N)N)NC(=O)[C@H](CCCNC(=N)N)NC(=O)[C@H](CCCNC(=N)N)NC(=O)CCCC[C@@H]1SC[C@@H]2NC(=O)N[C@@H]21)C(=O)N[C@@H](CCCCN)C(=O)O [scNIP] (Biotin-RRRRRRRRRSDADLEELK-OH)
NBS1-ATM interaction
  ATM-NBS1 association (anti-NBS1 immunoprecipitation, anti-ATM blot): did not affect the NBS1-ATM interaction
HeLa cells [2]; 8 hours
  fluorescent intensity levels of peptide in cells: much weaker
HeLa cells [2]; 12 hours
  peptide staining in cells: much weaker cytoplasmic staining with no observed nuclear staining
HeLa cells [2]; 24 hours
  peptide staining in cells: no detectable presence of the peptides
HeLa cells [2]; within 2 hours of treatment
  presence of peptides in cells: strong distribution
HeLa cells [2]; within 4 hours
  fluorescent intensity levels of peptide in cells: began to decrease
[3]
  average number of γ-H2AX foci/nucleus: 41 foci/nucleus
[4]
  IR-induced γ-H2AX focus formation: did not affect IR-induced focus formation
HeLa cells [5]
  D0 (mean lethal dose required for 37% survival): 3.0
HeLa cells [5]; 10 μM peptide
  effect of peptide on clonogenic survival: no significant difference between treatment groups
HeLa cells [5]; dose range 0 to 6 Gy
  effect on radiosensitivity / IR-induced survival: Neither R9 nor scNIP affects radiosensitivity
HeLa cells [6]
  cellular uptake of peptide: significant cellular uptake of peptide
  localization of internalized peptide: cytoplasmic and nuclear compartments
[7]; HeLa cells after treatment with 6-Gy IR
  NBS1 pSer343 foci per nucleus: 31 foci per nucleus
[7]; mock-irradiated HeLa cells
  average number of NBS1 pSer343 foci: 6

## Biotin-RRRRRRRRRKEESLADDLF [wild-type NBS1 inhibitory peptide (wtNIP)]
ATM
  SER (sensitizing enhancement ratio), DU-145: 1.46
  SER (sensitizing enhancement ratio), HeLa: 1.58
  SER (sensitizing enhancement ratio), M059J cells (defective DNA-PKcs): 1.83
  sensitizer enhancement ratio at 2Gy, HeLa: 1.66
  sensitizer enhancement ratio at 4Gy, HeLa: 2.61
  sensitizer enhancement ratio at 6Gy, HeLa: 3.12
